Calls of active or inactive are those of the source. The rule behind the calls is not given here. Where a SMILES comes first, the peptide text is derived from it. The star is where a group is joined. X1 = O=[N+]([O-])c1ccc(OCCOCCOCCOCCOCCOCCN*)c([N+](=O)[O-])c1; FITC = O=C1OC2(c3ccc(O)cc3Oc3cc(O)ccc32)c2ccc(NC(=S)*)cc21; X2 = O=[N+]([O-])c1ccc(OCCOCCOCCN*)c([N+](=O)[O-])c1; X3 = O=[N+]([O-])c1ccc(OCCN*)c([N+](=O)[O-])c1; Ahx = NCCCCCC(=O)O

Data set [1] concerns L6. In words: Binding affinity to human full-length wild type FGFR1c stably expressed in rat L6 cells assessed as increase in green fluorescence signal incubated for 1 hr by Alexa-488 staining based confocal fluorescence microscopic analysis. Type of data set: cell-based.
Data set [2] in a line: Binding affinity to CM5 sensor chip immobilized human full-length wild type FGFR1c assessed as dissociation constant by SPR analysis. Background: In SPR one partner is held on a chip, and binding of the other changes the refractive index at the surface.
For data set [3], the system named is L6. Kind of data set: Antiproliferative activity against FGF2-induced rat L6 cells stably expressing human full-length FGFR1c assessed as inhibition of cell growth incubated for 36 hrs by CCK-8 assay. Type of data set: functional, cell-based. Background: Tetrazolium assays rely on reduction of a dye to a coloured formazan, in cell work by metabolically active cells.

Data set [4] has as its system L6. In words: Antiproliferative activity against FGF2-induced rat L6 cells stably expressing human full-length FGFR1c assessed as inhibition of cell growth at 100 uM incubated for 36 hrs by CCK-8 assay relative to control. It is filed as functional.
Data set [5] deals with L6. Kind of data set: Induction of apoptosis in FGF2-induced rat L6 cells stably expressing human full-length FGFR1c assessed as downregulation of BCL-2 expression at 50 uM incubated for 24 hrs by Western blotting analysis. Type of data set: functional, cell-based. (In general: In western blotting, separated proteins are transferred to a membrane and probed.)
The subject of data set [6] is L6. In words: Induction of apoptosis in FGF2-induced rat L6 cells stably expressing human full-length FGFR1c assessed as upregulation of cleaved caspase-3 expression at 50 uM incubated for 24 hrs by Western blotting analysis. It is filed as functional, cell-based.
The test system of data set [7] is L6. In words: Induction of apoptosis in FGF2-induced rat L6 cells stably expressing human full-length FGFR1c assessed as upregulation of cleaved PARP expression at 50 uM incubated for 24 hrs by Western blotting analysis. Type of data set: functional, cell-based.
Data set [8] has as its system L6. In words: Binding affinity to FGFR1c in rat L6 cells assessed as increase in green fluorescence signal incubated for 1 hr by Alexa-488 staining based confocal fluorescence microscopic analysis. It is filed as cell-based.
Data set [9] has as its system NCI-H1581. In words: Binding affinity to FGFR1c in human NCI-H1581 cells assessed as increase in green fluorescence signal incubated for 1 hr by Alexa-488 staining based confocal fluorescence microscopic analysis. Type of data set: cell-based.
The subject of data set [10] is L6. Kind of data set: Binding affinity to human full-length wild type FGFR1c stably expressed in rat L6 cells assessed as increase in fluorescence signal by antibody recruiting based flow cytometry. Type of data set: cell-based.
For data set [11], the system named is NCI-H1581. In words: Binding affinity to FGFR1c in human NCI-H1581 cells assessed as increase in fluorescence signal by antibody recruiting based flow cytometry. It is filed as cell-based.
The subject of data set [12] is L6. In words: Binding affinity to human full-length wild type FGFR1c stably expressed in rat L6 cells assessed as fluorescence intensity at 10 uM by antibody recruiting based flow cytometry. Type of data set: cell-based.
The subject of data set [13] is NCI-H1581. In words: Binding affinity to FGFR1c in human NCI-H1581 cells assessed as fluorescence intensity at 10 uM by antibody recruiting based flow cytometry. It is filed as cell-based.
Data set [14] relates to L6. Kind of data set: Binding affinity to human full-length wild type FGFR1c stably expressed in rat L6 cells assessed as fold change in fluorescence intensity at 10 uM by antibody recruiting based flow cytometry relative to Pep1. It is filed as cell-based.
The subject of data set [15] is NCI-H1581. In words: Binding affinity to FGFR1c in human NCI-H1581 cells assessed as fold change in fluorescence intensity at 10 uM by antibody recruiting based flow cytometry relative to Pep1. It is filed as cell-based.
Data set [16] relates to L6. In words: Induction of cell lysis in rat L6 cells stably expressing human full-length FGFR1c at 1 uM incubated for 1 hr by complement dependent cytotoxicity based CCK-8 assay relative to control. Type of data set: functional.
For data set [17], the system named is NCI-H1581. In words: Induction of cell lysis in human NCI-H1581 cells at 1 uM incubated for 1 hr by complement dependent cytotoxicity based CCK-8 assay relative to control. It is filed as functional.
Data set [18] relates to L6. In words: Induction of cell lysis in rat L6 cells at 1 uM incubated for 1 hr by complement dependent cytotoxicity based CCK-8 assay relative to control. It is filed as functional.
The test system of data set [19] is L6. In words: Binding affinity to human full-length wild type FGFR1c stably expressed in rat L6 cells assessed as increase in green fluorescence signal at 2 uM by DAPI staining based confocal […] microscopic analysis. It is filed as cell-based.
Data set [20] in a line: Half life in immunized Sprague-Dawley rat at 1.5 mg/kg,SC administration measured upto 24 hrs by fluorescence based microplate reader assay. Type of data set: ADME, organism-based. The following applies: in vivo.
A short description of data set [21]: Tmax in immunized Sprague-Dawley rat at 1.5 mg/kg,SC administration measured upto 24 hrs by fluorescence based microplate reader assay. It is filed as ADME, organism-based. As to conditions: in vivo.
The nature of data set [22]: Cmax in immunized Sprague-Dawley rat at 1.5 mg/kg,SC administration measured upto 24 hrs by fluorescence based microplate reader assay. The following applies: in vivo. Type of data set: ADME, organism-based.
Data set [23] is described as follows: AUC in immunized Sprague-Dawley rat at 1.5 mg/kg,SC administration measured upto 24 hrs by fluorescence based microplate reader assay. It is filed as ADME, organism-based. As to conditions: in vivo.
Data set [24] has as its system L6. In words: Binding affinity to FGFR1c in rat L6 cells assessed as increase in green fluorescence signal at 2 uM by DAPI staining based confocal […] microscopic analysis. Type of data set: cell-based.
The subject of data set [25] is L6. Kind of data set: Induction of apoptosis in FGF2-induced rat L6 cells stably expressing human full-length FGFR1c assessed as upregulation of cleaved caspase-3 expression incubated for 24 hrs by Western blotting analysis. It is filed as functional, cell-based.
The test system of data set [26] is L6. In words: Induction of apoptosis in FGF2-induced rat L6 cells stably expressing human full-length FGFR1c assessed as upregulation of cleaved PARP expression incubated for 24 hrs by Western blotting analysis. It is filed as functional, cell-based.
Data set [27] concerns NCI-H1581. Kind of data set: Antitumor activity against human NCI-H1581 cells xenografted BALB/c mouse model assessed as inhibition of tumor growth at 20 mg/kg,SC administrated once daily for 12 days relative to control. Type of data set: functional. As to conditions: NCI-H1581, 288 h, time 12 day.

Consider `CC(C)C[C@H](NC(=O)[C@H](CO)NC(=O)[C@H](C)NC(=O)[C@H](Cc1c[nH]c2ccccc12)NC(=O)[C@H](CCCCN)NC(=O)[C@H](CCCCN)NC(=O)[C@H](CCCNC(=N)N)NC(=O)[C@@H](NC(=O)[C@H](CO)NC(=O)[C@H](CCCNC(=N)N)NC(=O)[C@@H](N)CCCNC(=N)N)C(C)C)C(=O)N[C@@H](Cc1ccc(O)cc1)C(=O)N[C@@H](Cc1ccc(O)cc1)C(=O)N[C@@H](CO)C(=O)N[C@@H](Cc1ccc(O)cc1)C(=O)N[C@@H](CC(C)C)C(=O)N1CCC[C@H]1C(=O)N[C@@H](CCC(=O)O)C(=O)N[C@H](C(=O)NCC(=O)NCC(=O)NCC(=O)NCCOCCOCCOCCOCCOCCOc1ccc([N+](=O)[O-])cc1[N+](=O)[O-])[C@@H](C)O` (H-RRSVRKKWASLYYSYLPETGGG-X1), for which the result in data set [1] was inactive.
Usually Kd stands for the concentration at which binding is half-saturated. As usually defined, the inhibition is the drop in the measured response relative to a control, in per cent. With `CC(C)C[C@H](NC(=O)[C@H](C)NC(=O)[C@@H](NC(=O)[C@H](Cc1ccc(O)cc1)NC(=O)[C@H](Cc1c[nH]c2ccccc12)NC(=O)[C@H](CO)NC(=O)[C@H](CO)NC(=O)[C@H](Cc1ccc(O)cc1)NC(=O)[C@H](CCCCN)NC(=O)[C@H](CCCNC(=N)N)NC(=O)[C@H](CO)NC(=O)[C@H](CCCNC(=N)N)NC(=O)[C@@H](N)Cc1ccc(O)cc1)C(C)C)C(=O)N[C@@H](CCCCN)C(=O)N[C@@H](CCCNC(=N)N)C(=O)N[C@@H](CC(C)C)C(=O)N1CCC[C@H]1C(=O)N[C@@H](CCC(=O)O)C(=O)N[C@H](C(=O)NCC(=O)NCC(=O)NCC(=O)NCCOCCOCCOc1ccc([N+](=O)[O-])cc1[N+](=O)[O-])[C@@H](C)O` (H-YRSRKYSSWYVALKRLPETGGG-X2), the Kd in data set [2] came to 5.37 µM. In addition, the Activity entry is “Dose-Dependent Effect” in data set [3]; “Dose-Dependent Effect” in data set [10]; “Dose-Dependent Effect” in data set [11]; 25.9% in data set [16]; 31.7% in data set [17]. For the same molecule, in data set [4], the inhibition at 100 µM came out at 100%. Also, the outcome in data set [5], in [6], in data set [7], in data set [1] and in data set [9] was Active. The outcome in data set [8] and in data set [18] was inactive. For the same molecule, the Flu intensity in data set [12] was 0.3 10^4No_unit; in data set [13], 0.5 10^3No_unit. The fold change (FC) in data set [14] was found to be 33.4; in [15], 3.6.
Turning to `CC(C)C[C@H](NC(=O)[C@H](C)NC(=O)[C@@H](NC(=O)[C@H](Cc1ccc(O)cc1)NC(=O)[C@H](Cc1c[nH]c2ccccc12)NC(=O)[C@H](CO)NC(=O)[C@H](CO)NC(=O)[C@H](Cc1ccc(O)cc1)NC(=O)[C@H](CCCCN)NC(=O)[C@H](CCCNC(=N)N)NC(=O)[C@H](CO)NC(=O)[C@H](CCCNC(=N)N)NC(=O)[C@@H](N)Cc1ccc(O)cc1)C(C)C)C(=O)N[C@@H](CCCCN)C(=O)N[C@@H](CCCNC(=N)N)C(=O)N[C@@H](CC(C)C)C(=O)N1CCC[C@H]1C(=O)N[C@@H](CCC(=O)O)C(=O)N[C@H](C(=O)NCC(=O)NCC(=O)NCC(=O)NCCOc1ccc([N+](=O)[O-])cc1[N+](=O)[O-])[C@@H](C)O` (H-YRSRKYSSWYVALKRLPETGGG-X3), the Kd in data set [2] worked out at 5.95 µM. Also, the Activity result in data set [3] was “Dose-Dependent Effect”; in data set [10], “Dose-Dependent Effect”; in data set [11] it was “Dose-Dependent Effect”; in [16], 29.3%; in [17] it was 35.8%. In addition, in data set [4], the inhibition at 100 µM worked out at 100%. The outcome in [5], in data set [6], in data set [7], in [1] and in data set [9] was Active. For the same molecule, the outcome in data set [8] and in data set [18] was inactive. The Flu intensity is 1.6 10^4No_unit in data set [12] and 3.5 10^3No_unit in data set [13]. Further, the results for the fold change (FC) in [14] and in data set [15] were 180 and 22.4, respectively.
With `CC(C)C[C@H](NC(=O)[C@H](CO)NC(=O)[C@H](C)NC(=O)[C@H](Cc1c[nH]c2ccccc12)NC(=O)[C@H](CCCCN)NC(=O)[C@H](CCCCN)NC(=O)[C@H](CCCNC(=N)N)NC(=O)[C@@H](NC(=O)[C@H](CO)NC(=O)[C@H](CCCNC(=N)N)NC(=O)[C@H](CCCNC(=N)N)NC(=O)CCCCCNC(=S)Nc1ccc2c(c1)C(=O)OC21c2ccc(O)cc2Oc2cc(O)ccc21)C(C)C)C(=O)N[C@@H](Cc1ccc(O)cc1)C(=O)N[C@@H](Cc1ccc(O)cc1)C(=O)N[C@@H](CO)C(=O)N[C@@H](Cc1ccc(O)cc1)C(N)=O` ({FITC-Ahx}-RRSVRKKWASLYYSY-NH2), the outcome in data set [19] was inactive.
As usually defined, the half-life is how long it takes for the measured level to halve. A high value points to slow loss. As usually defined, the Tmax is the time from dosing to the highest level. What is called Cmax is the peak of the concentration-time curve. The AUC is concentration integrated over time. The low end stands for less exposure, the high end for more exposure. For orientation: inhibition in vivo means how much of the control response was suppressed. For H-YRSRKYSSWYVALKRLPET-NH2, in data set [20], the half-life was 2.12 h. Further, the Tmax in data set [21] came to 0.58 h. This molecule also gave a peak concentration (Cmax) in [22] of 205 ng/mL. Further, the AUC at 24 h in data set [23] was found to be 711 ng·h/mL. Besides, in data set [19], the result was Active. The result in [24] was inactive. Also, the Kd in data set [2] was 1.6 µM. The Activity result in data set [3], in [25] and in data set [26] was “Dose-Dependent Effect” throughout. The inhibition at 100 µM in data set [4] came to 100%. In [27], the inhibition in vivo at 20 mg/kg turned out to be 44.2%.

These data come from ChEMBL document CHEMBL5584321, “Chemoenzymatic Synthesis of DNP-Functionalized FGFR1-Binding Peptides as Novel Peptidomimetic Immunotherapeutics for Treating Lung Cancer” (J Med Chem, 2024).
